Source: patent publication US7507792B2, “MDA-7 proteins and methods of use thereof” (The Trustees of Columbia University In The City of New York, priority 1993, dated 2009)
Entries after “also recorded” stand apart in the source; their conditions may differ. Starred links: 1 amine or outer side, 2 acyl side, 3 side chain; linkers in the order of their positions; H or OH if unused. Positions of bridges follow the written chain, without caps; N, C: chain ends. Non-standard residues stand in square brackets, D forms with d. Residues, ends and D or L forms follow the SMILES beside them. Chains are numbered I, II in the order given. Actinocin(9to1) = Cc1c2oc3c(C)ccc(C(=O)[*:1])c3nc-2c(C(=O)[*:2])c(N)c1=O; NMeV = CN[C@H](C(=O)O)C(C)C; Sar = CNCC(=O)O

Columns and labels:
[1] = tested on: mda-5; experiment: mda-5 expression (Northern blotting); assay type: cell-based, human; conditions: H0-1
Method: (§1) The mass excision of the library was performed using ExAssist helper phage as described above. The SOLR strain of Escherichia coli and cDNA phagemids were mixed at 37° C. for 15 min and plated onto LB plates containing ampicillin and IPTG/X-gal. White colonies were chosen at random, isolated and grown in LB medium. Plasmid minireps and restriction enzyme digestions were performed to confirm the presence of inserts. The inserts were isolated and used as robes for Northern blotting analysis (5,25). […] Radiolabeled probes were generated by random oligonucleotide priming (25). Prehybridization, hybridization, posthybridization washes, and autoradiography were performed as described (5,18,25).

[2] = tested on: mda-4; experiment: mda-4 expression (Northern blotting); assay type: cell-based, human; conditions: H0-1
Method: as §1

[3] = tested on: mda-8; experiment: mda-8 expression (Northern blotting); assay type: cell-based, human; conditions: H0-1
Method: as §1

[4] = tested on: mda-7; experiment: mda-7 expression (Northern blotting, RT-PCR); assay type: cell-based, human; conditions: for mda-7 expression: H0-1
Method: as §1

[5] = tested on: mda-9; experiment: mda-9 expression (Northern blotting); assay type: cell-based, human; conditions: H0-1
Method: as §1

[6] = tested on: mda-6; experiment: mda-6 expression (Northern blotting); assay type: cell-based, human; conditions: H0-1
Method: as §1
Total cytoplasmic RNA was isolated and Northern blotting hybridization was performed as described (Reddy et al., 1991; Su et al., 1991; Jiang et al., 1992). Ten μg of RNA was denatured with glyoxal/DMSO, electrophoresed on 1.0% agarose gels, transferred to nylon membranes and hybridized to a ^32P-labeled p53 probe (Baker et al., 1990). The nylon membrane was stripped and hybridized to a ^32P-labeled mda-6 probe (Jiang and Fisher, 1993) and then after a second stripping the membrane was hybridized to a ^32P-labeled rat GAPDH probe (Fort et al., 1985), as described previously (Reddy et al., 1991; Su et al., 1991; Jiang et al., 1992). Following hybridization, the filters were washed and exposed for autoradiography (Reddy et al., 1991; Su et al., 1991; Jiang et al., 1992). mda-6 and GAPDH gene expression were also determined by reverse transcription-polymerase chain reaction (RT-PCR) as described (Adollahi et al., 1991; Lin et al., 1994; Jiang et al., 1994b). Total cytoplasmic RNA was treated with 0.5 units DNase (Boehringer-Mannheim Biochemicals)/μg RNA in 15% glycerol, 10 mM Tris, pH 7.5, 2.5 mM MgCl2, 0.1 mM EDTA, 80 mM KCl, 1 mM CaCl2 and 1 unit/ml RNasin (Promega) at 30° C. for 10 min. RNA was extracted with phenol-chloroform, precipitated with sodium acetate/ethanol and RNA pellets were resuspended in diethylpyrocarbonate-treated H2O. One μg of total RNA was reverse transcribed with 200 units of murine leukemia virus reverse transcriptase (Bethesda Research Laboratories) in 20 μl containing 1 mM deoxyribonucleotide triphosphates, 4 mM MgCl2, 10 mM Tris, pH 8.3, 50 mM KCl, 0.001% gelatin and 0.2 μg oligo-dT primer. Samples were adjusted to 100 μl with buffer containing 0.2 mM deoxyribonucleotide triphosphates, 2 mM MgCl2, 10 mM Tris, pH 8.3, 50 mM KCl and 0.001% gelatin. Fifty pmol of each primer, 1.5 units Taq DNA polymerase (Perkin-Elmer Cetus) were added and samples were covered with mineral oil, heated at 95° C. for 5 min and subjected to 25 cycles of PCR in a Perkin-Elmer Thermal Cycler using 1 min denaturation at 94° C., 2 min annealing at 55° C. and 3 min polymerization at 72° C. After extraction with chloroform, 20 μl of products were electrophoresed, blotted onto nylon filters and hybridized with an mda-6 or GAPDH specific probe. The mda-6 primers were 5′ to 3′ […] (SEQ ID NO:26) and […] (SEQ ID NO:27)(corresponding to nt 1527 to 1546) (GenBank accession number U09579); and the GAPDH primers were 5′ to 3′ […] (SEQ ID NO:28)and […] (SEQ ID NO:29)(corresponding to nt 1070 to 1053) (Tokunaga et al., 1987).

[7] = tested on: H0-1 human melanoma cell line; experiment: 96-h growth suppression (cell number by Coulter Counter); assay type: cell-based; conditions: Table 2; H0-1 cells; degree of initial 96 hr growth suppression versus untreated control
Method: FIG. 1A-B Effect of continuous exposure to various growth and differentiation modulating agents on the 96-h growth of the human melanoma cell line, H0-1. Cells were seeded at 5×10^4/35-mm tissue culture plate and 24 h later the medium was changed with the indicated compounds. Cell numbers were determined by Coulter Counter after 96-h growth. Further details can be found in Materials and Methods.
The H0-1 cell line is a melanotic melanoma derived from a person and was used between passage 100 and 125 (6,8,13). H0-1 cells were kindly provided by Dr. Beppino C. Giovanella, Stehlin Foundation for Cancer Research, Houston, Tex. Cultures were grown at 37° C. in a 95% air 5% CO2-humidified incubator in Dulbecco's modified Eagle's medium (DMEM) supplemented with 10% fetal bovine serum (DMEM-10) (Hyclone, Logan, Utah). H0-1 cells were maintained in the logarithmic stage of growth by subculturing (1:5 or 1:10) prior to confluency approximately every 4 to 5 days. […] Total cell numbers were determined after days 4, 7, 14, and 21, using a ZM Coulter Counter, and viable cell numbers were determined by trypan blue dye exclusion (6). […] Increases in cell number (two or more population doublings) after removal of the inducing agent(s) was considered reversible growth suppression. […] Conditioned medium was collected from treated cultures, contaminating cells were removed by centrifugation at 1000 rpm/10 min., and conditioned medium was stored at 4° C. until assayed for gene modulatory activity. Control conditioned medium was obtained as experimental conditioned medium from cells receiving only a medium change 24 hours after plating in the absence of test compound(s) and growth for 72 hours in DMEM-10.

[8] = tested on: H0-1 cells; experiment: Northern blotting analysis of steady-state mRNA levels; assay type: cell-based, human; conditions: FIG. 1 concentrations
Method: Steady-state levels of specific mRNAs were determined by Northern blotting analysis of total RNA probed with appropriate ^32P-labeled gene probes as described previously (14-16). RNAs were analyzed from cells treated with inducer for 24 hours, treated for 24 hours with inducer followed by growth for 72 hours in the absence of inducer, or treated continuously for 96 hours with the inducer. The concentration of inducing compounds used were the same as those used for growth studies. The effect of conditioned medium on gene expression changes was determined by treating H0-1 cells for 24 hours with a 1:2 dilution of conditioned medium (equal volumes of conditioned medium and DMEM supplemented with 10% fetal bovine serum (DMEM-10) or for 96 hours with a 1:4 dilution of conditioned medium (1 vol. of conditioned medium to 3 vol. of DMEM-10). The probes used in the present study were specific for β-actin (17), γ-actin (17), c-jun (18), c-myc (19), fibronectin (20), gro/MGSA (21), HLA Class I antigen (22), HLA Class II antigen (HLA-DRβ) (22), α5 integrin (23), β1 integrin (24), ISG-15 (25), ISG-54 (25), jun-B (26), and tenascin (27). Northern blots were also probed with a ^32P-labeled GAPDH gene (15) to verify similar mRNA expression under the various experimental conditions. Following hybridization, the filters were washed and exposed for autoradiography.

[9] = 24 hours, doses of FIG. 19, phenyl butyrate 24 hours, 4 days or 7 days
[10] = 24 hours, doses of FIG. 19, phenyl butyrate 24 hours, 4 or 7 days
[11] = 96 hours, doses of FIG. 15 legend

Row | Molecule | mda-5 expression [1, 9] | mda-4 expression [2, 9] | mda-8 expression [3, 9] | mda-7 expression [4, 9] | mda-9 expression [5, 9] | mda-6 expression [6, 10] | further results
1 | IFN-α | increased expression | increased expression | No change in expression | No induction in mda-7 expression | Increased expression | Decreased expression | 
2 | phenylacetate |  |  |  |  |  |  | mda-7 expression (RT-PCR) ([4]; LAN human neuroblastoma cells, 5 days): induced
3 | CC[C@]1(O)C[C@H]2CN(CCc3c([nH]c4ccccc34)[C@@](C(=O)OC)(c3cc4c(cc3OC)N(C=O)[C@H]3[C@@](O)(C(=O)OC)[C@H](OC(C)=O)[C@]5(CC)C=CCN6CC[C@]43[C@@H]65)C2)C1 [vincristine, Vincristine] | No change in expression | No or only a small change in expression | No change in expression | increased mda-7 expression | No change in mda-9 expression | No change in mda-6 expression | 
4 | Cc1c2oc3c(C)ccc(C(=O)N[C@@H]4C(=O)N[C@H](C(C)C)C(=O)N5CCC[C@H]5C(=O)N(C)CC(=O)N(C)[C@@H](C(C)C)C(=O)O[C@@H]4C)c3nc-2c(C(=O)N[C@@H]2C(=O)N[C@H](C(C)C)C(=O)N3CCC[C@H]3C(=O)N(C)CC(=O)N(C)[C@@H](C(C)C)C(=O)O[C@@H]2C)c(N)c1=O [actinomycin D] (I: T[dV]P[Sar][NMeV] / II: T[dV]P[Sar][NMeV]; ester I:1-I:C, II:1-II:C; linker I:N-II:N via Actinocin(9to1)) | No change in expression | No or only a small change in expression | Increased expression | No induction in mda-7 expression | No change in mda-9 expression | increased expression | 
5 | N.N.[Cl][Pt][Cl] [cis-platinum] | No change in expression | increased expression | Increased expression | No induction in mda-7 expression | No change in mda-9 expression | Decreased expression | 
6 | COS(C)(=O)=O [methyl methanesulfonate] |  |  |  |  |  |  | mda-6 expression ([6]; 2 h exposure to 25 μg/ml): Elevated mda-6 expression
7 | IFN-γ: Recombinant human immune interferon |  |  |  |  |  |  | mda-5 expression [1, 11]: Enhanced expression; also recorded: induced; mda-4 expression [2, 11]: Increased expression; Growth Suppression (reversible) [7]: 2+ (2+ = ~40% reduction in growth in comparison with untreated control cultures); mda-8 expression [3, 11]: enhanced mda-8 expression; also recorded: increased mda-8 expression; HLA Class I antigen gene expression ([8]; 96 h): enhanced HLA Class I antigen expression; HLA Class II antigen gene (HLA-DRβ) expression ([8]; 96 h): enhanced expression; fibronectin expression ([8]; 96 h): most effective single agents; induction of gro/MGSA gene expression ([8]; 96 h): did not induce gro/MGSA expression; tenascin expression ([8]; 96 h): enhanced tenascin expression; β1 integrin expression ([8]; 96 h): upregulation; c-jun and jun-B expression ([8]; 96 hours): increase; c-myc expression ([8]; 96 hours): increased c-myc expression; mda-7 expression [4, 11]: No induction in mda-7 expression; also recorded: does not result in significant mda-7 expression; mda-9 expression [5, 11]: No change in mda-9 expression; mda-6 expression [6, 11]: no significant or reduced alteration in expression
8 | TNF-α | No change in expression | No or only a small change in expression | No change in expression | No induction in mda-7 expression | Increased expression | Decreased expression | 
9 | COc1cc([C@@H]2c3cc4c(cc3[C@@H](O[C@@H]3O[C@@H]5CO[C@@H](C)O[C@H]5[C@H](O)[C@H]3O)[C@H]3COC(=O)[C@H]23)OCO4)cc(OC)c1O [VP-16] | No change in expression | No or only a small change in expression | No change in expression | No induction in mda-7 expression | Increased expression | increased expression | 
10 | COc1cccc2c1C(=O)c1c(O)c3c(c(O)c1C2=O)C[C@@](O)(C(=O)CO)C[C@@H]3O[C@H]1C[C@H](N)[C@H](O)[C@H](C)O1 [adriamycin, Adriamycin] | No change in expression | No or only a small change in expression | Increased expression | increased mda-7 expression |  | increased expression | 
11 | CCCC(=O)Oc1ccccc1 [phenyl butyrate] | No change in expression | No or only a small change in expression | No change in expression | No induction in mda-7 expression | Increased expression | Decreased expression | 
